Several values for one entry are separate records, joined by “and”; a condition that tells them apart may be missing. Equal entries are not always repeated. Inconclusive results and toxic doses are left out. The calls were made as follows: active = survival T/C of 150% or more; inactive = T/C below 125% in these data.
Test system: B6C3F1 mice, ip Sarcoma M5076, median survival T/C
Assay: NCI In Vivo Anticancer Drug Screen. Data for tumor model Sarcoma M5076 (intraperitoneal) in B6C3F1 mice
Conditions: endpoint: median survival time, schedule: Q04DX004 (ip), vehicle: saline with Tween-80, higher = longer survival
Outline: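 The readout is a ratio of survival in drug-treated animals to survival in animals given vehicle alone, taken in mice bearing a transplanted tumour line.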

Measured: T/C

CC1/C=C/C=C/CC/C=C/C=C/C=C/C=C/C(OC2OC(C)C(O)C(N)C2O)CC2OC(CC(O)C(O)CCC(O)CC(O)CC(O)CC(=O)OC(C)C(C)C1O)CC(O)C2C(=O)O (stereo not given)
inactive: dose: 6.25 mg/kg/injection 122 % of control | dose: 12.5 mg/kg/injection 117 % of control | dose: 25.0 mg/kg/injection 118 % of control and 122 % of control | dose: 50.0 mg/kg/injection 96 % of control and 97 % of control | dose: 100.0 mg/kg/injection 96 % of control and 107 % of control

Reference: PubChem BioAssay AID292 (DTP/NCI, 2004)
